How the values were obtained:
[1] = system: human M1, M2 and M3 ACh receptors stably expressed in CHO cells; test: Calcium mobilization (FLIPR) IC50 determination for antagonists: inhibition of ACh induced muscarinic receptor activation; type: cell-based; details: EC80 concentration of ACh, active if IC50 of between 33 uM and 10 nM or less, receptor subtype not specified for the statement
Excerpt: Studies to determine the effectiveness of antagonists to cause blockade of functional intracellular calcium fluxes following agonist (ACh) treatment of cloned human receptors. This system is used for characterizations of antagonist-receptor interactions using four distinct variations of the FLIPR methodology: (a) potency: IC50 determination, (b) potency: pA2 determination, (c) reversibility of antagonist-receptor interaction, or (d) confirmation of no functional agonist activity.
Cell Source The human M1-M3 receptors are cloned and stably expressed in Chinese Hamster Ovary (CHO) cells. The M2 receptors are co-expressed with the chimeric G protein, Gqi5.
Method of Culture: CHO-M1, CHO-Gqi5-M2 and CHO-M3 cells are cultured to confluence at 37° C. in a humidified incubator with 5% CO2/95% air. […] The emitted fluorescence from all 96 wells is measured simultaneously using a cooled CCD camera. […]
Cell plating: A microtiter plate based calcium mobilization FLIPR (Fluorometric Imaging Plate Reader, Molecular Devices, Sunnyvale Calif., [Schroeder K S, Neagle, B D. FLIPR: a new instrument for accurate, high throughput optical screening. J. Biomol. Screen. 1996; 1:75.]) assay is used for the functional characterization of compounds against M1, M2 (w/Gqi5) and M3 ACh receptors stably expressed in CHO cells. […]

Row | SMILES | melting point | IC50 (compound pretreatment concentration which inhibits 50% of the ACh induced response), activity rating [1]
1 | NC(=O)c1ccc(Cl)c(Br)c1 | 146 to 147 °C | –
2 | CCc1nc2c(cnn2CC)c(NC2CCOCC2)c1CNC(=O)c1cccc(C(=O)NCc2ccc(OC)c(-c3cccc(CN4CCN[C@@H](C)C4)c3)c2)n1 [Example 157, N-{[1,6-Diethyl-4-(tetrahydro-2H-pyran-4-ylamino)-1H-pyrazolo[3,4-b]pyridin-5-yl]methyl}-N′-[(6-(methyloxy)-3′-{[(3S)-3-methyl-1-piperazinyl]methyl}-3-biphenylyl)methyl]-2,6-pyridinedicarboxamide] | – | most active

From patent US8084449B2, “Dual pharmacophores—PDE4-muscarinic antagonistics” (Glaxo Group Limited, priority 2008, dated 2011)
